Measurements from ChEMBL document CHEMBL5338775, “Discovery of a Novel Class of PROTACs as Potent and Selective Estrogen Receptor α Degraders to Overcome Endocrine-Resistant Breast Cancer In Vitro and In Vivo” (J Med Chem, 2023).
Calls of active or inactive are those of the source. No cut-off for these calls is given here. Residues, ends and D or L forms follow the SMILES beside them. *: point of attachment. Cbz = O=C(OCc1ccccc1)*

Key:
[1] = molecular target: T1, Estrogen receptor (Homo sapiens) (UniProt P03372); assay: Induction of ERalpha degradation in ER-positive human MCF7 cells at 1 uM incubated for 12 hrs in presence of N-ethyl-5,6-bis(4-hydroxyphenyl)-N-(4-methoxyphenyl)-7-oxabicyclo[2.2.1]hept-5-ene-2-sulfonamide by Western blot analysis; type: cell-based
T1 sequence (whole entry): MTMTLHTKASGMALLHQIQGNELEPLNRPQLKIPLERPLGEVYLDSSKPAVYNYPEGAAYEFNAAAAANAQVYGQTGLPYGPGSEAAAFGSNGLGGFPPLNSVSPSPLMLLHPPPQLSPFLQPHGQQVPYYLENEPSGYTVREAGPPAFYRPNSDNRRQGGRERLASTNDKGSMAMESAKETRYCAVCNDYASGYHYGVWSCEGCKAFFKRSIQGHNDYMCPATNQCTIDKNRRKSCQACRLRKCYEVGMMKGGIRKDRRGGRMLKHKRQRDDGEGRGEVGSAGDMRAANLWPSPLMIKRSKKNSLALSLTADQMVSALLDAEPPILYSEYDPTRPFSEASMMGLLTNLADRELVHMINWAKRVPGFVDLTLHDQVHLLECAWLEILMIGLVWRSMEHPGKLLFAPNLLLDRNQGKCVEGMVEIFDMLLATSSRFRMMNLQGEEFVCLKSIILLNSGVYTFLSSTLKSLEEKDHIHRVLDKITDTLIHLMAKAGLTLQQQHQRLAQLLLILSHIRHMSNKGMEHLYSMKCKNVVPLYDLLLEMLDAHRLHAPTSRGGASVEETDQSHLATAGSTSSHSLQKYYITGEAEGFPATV

[2] = molecular target: T1, Estrogen receptor (Homo sapiens); assay: Induction of ERalpha degradation in ER-positive human MCF7 cells at 1 uM incubated for 12 hrs by Western blot analysis; type: cell-based
[3] = molecular target: T1, Estrogen receptor (Homo sapiens); assay: Induction of ERalpha degradation in ER-positive human MCF7 cells at 10 uM incubated for 12 hrs by Western blot analysis; type: cell-based
Estrogen receptor beta [4] = molecular target: T2, Estrogen receptor beta (Homo sapiens, UniProt Q92731); assay: Induction of ERbeta degradation in human NCI-H1975 cells at 10 uM incubated for 12 hrs by Western blot analysis; type: cell-based
T2 sequence (Q92731 whole entry): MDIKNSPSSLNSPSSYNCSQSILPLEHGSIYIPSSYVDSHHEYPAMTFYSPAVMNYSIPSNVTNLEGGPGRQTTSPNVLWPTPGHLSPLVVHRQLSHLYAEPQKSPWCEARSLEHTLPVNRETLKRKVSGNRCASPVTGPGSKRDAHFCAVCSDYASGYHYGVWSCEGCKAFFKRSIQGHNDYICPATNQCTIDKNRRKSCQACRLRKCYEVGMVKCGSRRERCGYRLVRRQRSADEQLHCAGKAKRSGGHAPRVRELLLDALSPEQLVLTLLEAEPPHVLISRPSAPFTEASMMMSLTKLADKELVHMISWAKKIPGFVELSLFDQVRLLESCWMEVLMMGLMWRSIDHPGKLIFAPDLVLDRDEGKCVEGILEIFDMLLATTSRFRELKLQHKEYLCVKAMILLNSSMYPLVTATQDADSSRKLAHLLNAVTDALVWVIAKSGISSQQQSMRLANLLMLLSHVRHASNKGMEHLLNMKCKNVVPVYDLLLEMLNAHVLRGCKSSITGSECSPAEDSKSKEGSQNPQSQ

MCF7 [5] = assay: Antitumor activity against human tamoxifen-sensitive MCF7 cells xenografted in BALB/c nude mouse assessed as reduction in cell proliferation at 5 micromol/kg, ip administered once every 2 days by ki67 staining based analysis; type: functional, organism-based; settings: dose 5.0 µmol/kg
MDA-MB-231 = assay: cells; settings: Homo sapiens, MDA-MB-231, 72 h
T47D [6] = assay: Inhibition of nascent IGFBP4 RNA synthesis in human T47D cells incubated for 6 hrs by 4-thiouridine incorporation assay; type: functional, cell-based
cells = settings: Homo sapiens, Tamoxifen-resistant LCC2 cell, 72 h
T47D [7] = assay: Inhibition of gene transcription in human T47D cells assessed as reduction in H3K27ac levels in GREB1 promoter region by ChIP-seq analysis; type: functional, cell-based
MCF7 [8] = assay: cells; settings: Homo sapiens, MCF7, 72 h
T47D [9] = assay: Inhibition of gene transcription in human T47D cells assessed as reduction in Pol II occupancy at IGFBP4 promoter region by ChIP-seq analysis; type: functional, cell-based
T47D [10] = assay: Inhibition of gene transcription in human T47D cells assessed as reduction in H3K27ac levels in IGFBP4 promoter region by ChIP-seq analysis; type: functional, cell-based
[11] = molecular target: T1, Estrogen receptor (Homo sapiens); assay: Inhibition of ERalpha binding to DNA in human T47D cells assessed as reduction in protein occupancy incubated for 6 hrs by ChIP-seq analysis; type: cell-based
MCF7 [12] = assay: Antitumor activity against human tamoxifen-sensitive MCF7 cells xenografted in BALB/c nude mouse assessed as inhibition of tumor growth at 5 micromol/kg, ip administered once every 2 days and measured every 2 days; type: functional, organism-based; settings: dose 5.0 µmol/kg
T47D [13] = assay: Inhibition of gene transcription in human T47D cells assessed as reduction in Pol II occupancy at GREB1 promoter region by ChIP-seq analysis; type: functional, cell-based
MCF7 [14] = assay: Antitumor activity against human tamoxifen-sensitive MCF7 cells xenografted in BALB/c nude mouse assessed as increase in tumor necrosis area at 5 micromol/kg, ip administered once every 2 days by […] staining based analysis; type: functional, organism-based; settings: dose 5.0 µmol/kg
Mus musculus = assay: In vivo protac activity at VHL/ERalpha in BALB/c nude mouse xenografted with human tamoxifen-sensitive MCF7 cells assessed as reduction in ERalpha protein levels in tumor at 5 micromol/kg, ip administered once every 2 days by Western blot analysis; type: functional, organism-based; settings: dose 5.0 µmol/kg
T47D [15] = assay: Inhibition of nascent GREB1 RNA synthesis in human T47D cells incubated for 6 hrs by 4-thiouridine incorporation assay; type: functional, cell-based
T47D [16] = assay: cells; settings: Homo sapiens, 72 h
T47D [17] = assay: cells; settings: Homo sapiens, 72 h; remark: listed apart in the source
T47D [18] = assay: cells; settings: Homo sapiens, 72 h; remark: listed apart in the source
[19] = molecular target: T1, Estrogen receptor (Homo sapiens); assay: Induction of ERalpha degradation in ER-positive human MCF7 cells at 5 uM incubated for 12 hrs by Western blot analysis; type: cell-based
[20] = Selectivity ratio of relative binding affinity for ERalpha (unknown origin) to relative binding affinity to ERbeta (unknown origin)
[21] = molecular target: T3, von Hippel-Lindau disease tumor suppressor/Estrogen receptor (Homo sapiens) (UniProt P03372+P40337); assay: PROTAC activity at VHL/ERalpha in ER-positive human MCF7 cells assessed as induction of ERalpha degradation at 1 to 5 uM incubated for 12 hrs by Western blot analysis; type: cell-based; settings: dose 1-5 µM
T3 sequence (P40337 whole entry, looked up, one chain of several): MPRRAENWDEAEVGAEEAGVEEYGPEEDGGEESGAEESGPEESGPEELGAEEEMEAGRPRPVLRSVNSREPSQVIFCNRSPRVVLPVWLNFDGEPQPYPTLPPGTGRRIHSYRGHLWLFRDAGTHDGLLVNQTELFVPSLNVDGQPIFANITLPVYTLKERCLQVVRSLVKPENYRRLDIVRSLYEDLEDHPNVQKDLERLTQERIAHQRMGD

[22] = Selectivity index, ratio of Ki for ERalpha (unknown origin) to Ki for ERbeta (unknown origin)
Estrogen receptor beta [23] = molecular target: T2, Estrogen receptor beta; assay: Binding affinity to ERbeta (unknown origin) assessed as relative binding affinity incubated for 2 hrs by fluorescence polarization assay relative to estradiol
Estrogen receptor beta [24] = molecular target: T2, Estrogen receptor beta
in vitro = settings: human, MCF-10A cells
Estrogen receptor = molecular target: T4, Estrogen receptor (Homo sapiens, UniProt P03372)
T4 sequence (P03372 whole entry): T1 sequence (whole entry)

[25] = molecular target: T3, von Hippel-Lindau disease tumor suppressor/Estrogen receptor (Homo sapiens); assay: PROTAC activity at VHL/wild type ERalpha in ER-positive human T47D cells assessed as induction of ERalpha degradation at 2 uM incubated for 12 hrs by Western blot analysis; type: cell-based
[26] = molecular target: T3, von Hippel-Lindau disease tumor suppressor/Estrogen receptor (Homo sapiens); assay: PROTAC activity at VHL/ERalpha in ER-positive human tamoxifen-resistant LCC2 cells assessed as induction of ERalpha degradation at 2 uM incubated for 12 hrs by Western blot analysis; type: cell-based; settings: tamoxifen-resistant LCC2 cell
[27] = molecular target: T3, von Hippel-Lindau disease tumor suppressor/Estrogen receptor (Homo sapiens); assay: PROTAC activity at VHL/wild type ERalpha in ER-positive human MCF7 cells assessed as induction of ERalpha degradation at 1 uM incubated for 12 hrs by Western blot analysis; type: cell-based
[28] = molecular target: T1, Estrogen receptor (Homo sapiens); assay: Induction of ERalpha degradation in ER-positive human MCF7 cells at 1 uM incubated for 12 hrs in presence of (2S,4R)-1-[(2S)-2-amino-3,3-dimethylbutanoyl]-4-hydroxy-N-[(1S)-1-[4-(4-methyl-1,3-thiazol-5-yl)phenyl]ethyl]pyrrolidine-2-carboxamide by Western blot analysis; type: cell-based
[29] = molecular target: T1, Estrogen receptor (Homo sapiens); assay: Induction of ERalpha degradation in ER-positive human MCF7 cells at 1 to 10 uM incubated for 12 hrs by Western blot analysis; type: cell-based; settings: dose 1-10 µM
Estrogen receptor beta [30] = molecular target: T2, Estrogen receptor beta; assay: Induction of ERbeta degradation in human NCI-H1975 cells at 1 to 10 uM incubated for 12 hrs by Western blot analysis; type: cell-based; settings: dose 1-10 µM

Compound	IC50 (MDA-MB-231)	IC50 (cells)	IC50 (MCF7 [8])	IC50 (T47D [16])	IC50 (T47D [17])	IC50 (T47D [18])	Selectivity ratio [20]	Ratio Ki [22]	RBA (Estrogen receptor beta [23])	Ki (Estrogen receptor beta [24])	IC50 at 72 h (in vitro)	Ki (Estrogen receptor)	other results
Cc1ncsc1-c1ccc([C@H](C)NC(=O)[C@@H]2C[C@@H](O)CN2C(=O)[C@@H](N)C(C)(C)C)cc1	–	–	–	–	–	–	–	–	–	–	–	–	Activity [1]: inactive; Activity [2]: inactive
COc1ccc(N(CC(F)(F)F)S(=O)(=O)C2CC3OC2C(c2ccc(O)cc2)=C3c2ccc(O)cc2)cc1 (stereo unspecified)	–	–	–	–	–	–	–	–	–	–	–	–	Activity [3]: Active; Activity (Estrogen receptor beta [4]): Active
C[C@]12CC[C@@H]3c4ccc(O)cc4C[C@@H](CCCCCCCCC[S+]([O-])CCCC(F)(F)C(F)(F)F)[C@H]3[C@@H]1CC[C@@H]2O (stereo partly specified) [FULVESTRANT]	> 100 µM	11.8 µM	0.33 µM	1.76 µM	3.92 µM	2.21 µM	–	–	–	–	–	–	Activity (MCF7 [5]): Active; inhibition (T47D [6]): Active; inhibition (T47D [7]): Active; inhibition (T47D [9]): Active; inhibition (T47D [10]): Active; inhibition [11]: Active; inhibition (MCF7 [12]): Active; inhibition (T47D [13]): Active; Activity (MCF7 [14]): Active; Activity (Mus musculus): Active; inhibition (T47D [15]): Active
CC/C(=C(\c1ccccc1)c1ccc(OCCN(C)C)cc1)c1ccccc1	–	–	–	–	–	–	–	–	–	–	–	–	Activity (MCF7 [5]): Active; inhibition (MCF7 [12]): Active; Activity (MCF7 [14]): Active; Activity (Mus musculus): inactive
CC(C)C[C@@H](C=O)NC(=O)[C@H](CC(C)C)NC(=O)[C@H](CC(C)C)NC(=O)OCc1ccccc1 (Cbz-Leu-Leu-Leu-aldehyde)	–	–	–	–	–	–	–	–	–	–	–	–	Activity [19]: inactive
Cc1ncsc1-c1ccc([C@H](C)NC(=O)[C@@H]2C[C@H](O)CN2C(=O)[C@@H](NC(=O)CCCCCOc2ccc(N(CC(F)(F)F)S(=O)(=O)C3CC4OC3C(c3ccc(O)cc3)=C4c3ccc(O)cc3)cc2)C(C)(C)C)cc1 (stereo partly specified)	> 100 µM	> 50 µM	> 50 µM	> 50 µM	> 50 µM	> 50 µM	1.6	6.2	0.05%	15.7 µM	> 100 µM	2.54 µM	Activity [21]: inactive
CCN(c1ccc(OCCCCCC(=O)N[C@H](C(=O)N2C[C@@H](O)C[C@H]2C(=O)N[C@@H](C)c2ccc(-c3scnc3C)cc2)C(C)(C)C)cc1)S(=O)(=O)C1CC2OC1C(c1ccc(O)cc1)=C2c1ccc(O)cc1 (stereo partly specified)	> 100 µM	> 50 µM	> 50 µM	> 50 µM	> 50 µM	> 50 µM	0.81	3.15	0.16%	4.91 µM	> 100 µM	1.56 µM	Activity [21]: inactive
Cc1ncsc1-c1ccc(CNC(=O)[C@@H]2C[C@@H](O)CN2C(=O)[C@@H](NC(=O)CCCCCOc2ccc(N(CC(F)(F)F)S(=O)(=O)C3CC4OC3C(c3ccc(O)cc3)=C4c3ccc(O)cc3)cc2)C(C)(C)C)cc1 (stereo partly specified)	> 100 µM	13 µM	0.11 µM	12.6 µM	11.3 µM	9.28 µM	1.75	6.78	0.04%	19.7 µM	1.35 µM	2.9 µM	Activity [25]: Active; Activity [26]: Active; Activity [27]: Active
CCN(c1ccc(OC)cc1)S(=O)(=O)C1CC2OC1C(c1ccc(O)cc1)=C2c1ccc(O)cc1 (stereo unspecified)	–	–	–	–	–	–	3.39	13.1	0.31%	2.54 µM	–	0.19 µM	Activity [28]: inactive; Activity [29]: inactive; Activity (Estrogen receptor beta [30]): inactive; Activity [2]: inactive
